# According to paper PMC9468151, “Identification of a binding site on soluble RANKL that can be targeted to inhibit soluble RANK-RANKL interactions and treat osteoporosis” (Nature Communications, 2022):
# Where “and” joins values, the source holds several entries; their conditions need not be identical. Equal values may be shown once.
# Experiments:
# [1] = Pharmacokinetic studies in rat; format: in vivo; design: plasma concentration-time (fig. S2c): unit not given here; details: for Cmax / half-life: Sprague-Dawley; for Cmax / half-life / plasma concentration-time (fig. S2c): rat; for Cmax / half-life / AUC: male SD rats, oral 10 mg/kg, plasma
# Protocol: 28-week-old and 280 g∼370 g weight male SD (Sprague Dawley) rats were used for pharmacokinetic (PK) studies. Rats were weighed and divided into groups of 3 rats per group. Compounds S3, S3-05 and S3-15 were dissolved in deionized water and made the concentration to 1 mg/mL. Then rats were oral gavage administrated at the doses of 10 mg/kg for each compound. Blood samples were collected in tubes with heparin sodium at 5 min, 10 min, 20 min, 30 min, 40 min, 60 min, 2 h, 3 h, 4 h, 5.5 h, 7 h, 9 h, 12 h, 16 h, 24 h, 32 h, 40 h, 48 h, time points, with three […] per time point for each compound. Blood samples were centrifuged 2100 × g for 10 min at 4 °C, then the plasma was transferred to a clean microfuge tube. Plasma samples were stored at −80 °C. Additionally, ten rats were used as a control and not treated with compound. Plasma from control mice was used to calibrate LC-MS and correct for matrix effects. Drug concentration in plasma was quantified by LC-MS-based methods. Pharmacokinetic parameters were estimated using Phoenix WinNonlin (version 6.3) (Certara USA, Princeton, New Jersey) from mean plasma concentration-time profiles.
# [2] = test system: sRANKL induced osteoclast differentiation; test: In vitro anti-osteoclastogenesis activity determination (TRAP staining); format: cell-based, mouse; design: key to inhibition of osteoclastogenesis, dose-response (fig. S2a): % inhibition = 100 − (treated−unstimulated)/(untreated−unstimulated)×100; details: for IC50: 120 h, BMMs, M-CSF + 100 ng/mL sRANKL, 5 days, TRAP staining, read-out: OC IC50 (anti-osteoclastogenesis activity)
# Method in brief: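 Mouse bone-marrow macrophages in 10 ng/mL M-CSF were stimulated with 100 ng/mL sRANKL plus compound at 9 concentrations, refreshed every 2 days, triplicate wells. After 5 days TRAP-stained osteoclasts were counted; inhibition normalised to untreated and unstimulated controls, IC50 by nonlinear regression.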
# OVX rats = test: Osteoporosis biomarkers determination in rat serum (ELISA); format: in vivo; design: OCN / RANKL / PINP / CTX-I / Glu-OCN: unit not given here; details: serum; OVX + compound; individual animals
# Protocol: Change of rat osteoporosis biomarkers after treating with S3-15 were determined by enzyme-linked immunosorbent assay (ELISA). […] serum biomarkers including CTX-I (C-terminal telopeptide of type I collagen), OC(Osteocalcin), PINP (Procollagen I N-Terminal propeptide), and RANKL(Receptor activator of nuclear factor-κB ligand). Rat blood was collected from aortaventralis after anesthesia, and centrifuged in 14000 × g at 4 °C to get the serum samples. The protein contents of those biomarkers in serum samples were detected according to manufacturer’s instruction (CTX-I and OC, Systems IDS, UK; RANKL, R&D Systems, USA; PINP, USCN Life Science, Inc., China.).
# [3] = Mus musculus, Osteoclast, conc. 0.0843226 μM, three replicate columns, read-out: inhibition of osteoclastogenesis, dose-response (fig. S2a)
# [4] = Mus musculus, Osteoclast, conc. 0.278265 μM, three replicate columns, read-out: inhibition of osteoclastogenesis, dose-response (fig. S2a)
# [5] = Mus musculus, Osteoclast, conc. 0.918274 μM, three replicate columns, read-out: inhibition of osteoclastogenesis, dose-response (fig. S2a)
# [6] = Mus musculus, Osteoclast, conc. 3.0303 μM, three replicate columns, read-out: inhibition of osteoclastogenesis, dose-response (fig. S2a)
# [7] = Mus musculus, Osteoclast, conc. 10 μM, three replicate columns, read-out: inhibition of osteoclastogenesis, dose-response (fig. S2a)
# [8] = Mus musculus, Osteoclast, conc. 33 μM, three replicate columns, read-out: inhibition of osteoclastogenesis, dose-response (fig. S2a)
# [9] = conc. 0.0023464 μM, three replicate columns
# [10] = conc. 0.00774313 μM, three replicate columns
# [11] = conc. 0.0255523 μM, three replicate columns
# [12] = conc. 0.0843226 μM, three replicate columns
# [13] = conc. 0.278265 μM, three replicate columns
# [14] = conc. 0.918274 μM, three replicate columns
# [15] = conc. 3.0303 μM, three replicate columns
structure (smiles),measurement,setting,value
"CCOC(=O)c1sc(NC(=O)/C(=N/Nc2ccccc2C(=O)O)C(C)=O)nc1C [S3, (E)-2-(2-(1-((5-(ethoxycarbonyl)-4-methylthiazol-2-yl)amino)-1,3-dioxobutan-2-ylidene) hydrazinyl) benzoic acid]",Cmax,[1],1430 ± 650 ng/mL
same,half-life,[1],7.51 h
same,AUC,[1],5.67± 3.48 hr*ug/m
same,plasma concentration-time (fig. S2c),[1]; time 0.083 h,1.351 and 0.4444 and 0.2871
same,plasma concentration-time (fig. S2c),[1]; time 0.167 h,2.528 and 0.9092 and 0.8091
same,plasma concentration-time (fig. S2c),[1]; time 0.333 h,3.09 and 1.211 and 2.048
same,plasma concentration-time (fig. S2c),[1]; time 0.5 h,3.054 and 1.206 and 2.481
same,plasma concentration-time (fig. S2c),[1]; time 0.667 h,2.576 and 1.333 and 1.703
same,plasma concentration-time (fig. S2c),[1]; time 1 h,1.712 and 1.674 and 1.242
same,plasma concentration-time (fig. S2c),[1]; time 2 h,1.693 and 1.071 and 0.7425
same,plasma concentration-time (fig. S2c),[1]; time 3 h,1.218 and 0.6709 and 0.4108
same,plasma concentration-time (fig. S2c),[1]; time 4 h,1.2291 and 0.8619 and 0.3316
same,plasma concentration-time (fig. S2c),[1]; time 5.5 h,0.4965 and 0.6324 and 0.178
same,plasma concentration-time (fig. S2c),[1]; time 7 h,0.6171 and 0.2252 and 0.1625
same,plasma concentration-time (fig. S2c),[1]; time 9 h,0.8173 and 0.544
same,plasma concentration-time (fig. S2c),[1]; time 12 h,0.5875 and 0.2812 and 0.1945
same,plasma concentration-time (fig. S2c),[1]; time 16 h,1.063 and 0.3858 and 0.544
same,plasma concentration-time (fig. S2c),[1]; time 24 h,1.148 and 0.1582 and 0.2706
same,plasma concentration-time (fig. S2c),[1]; time 48 h,0.06761 and 0.02244 and 0.00409
same,IC50,"[2]; Mus musculus, Osteoclast",96 nM
same,inhibition at 0.0843226 µM,[2]; [3],55.6%
same,inhibition at 0.278265 µM,[2]; [4],62.8%
same,inhibition at 0.918274 µM,[2]; [5],74.4%
same,inhibition at 3.0303 µM,[2]; [6],82.5%
same,inhibition at 10 µM,[2]; [7],95.5%
same,inhibition at 33 µM,[2]; [8],100%
same,"inhibition of osteoclastogenesis, dose-response (fig. S2a)",[2]; [9],14.7982 and 23.3184 and -0.4484
same,"inhibition of osteoclastogenesis, dose-response (fig. S2a)",[2]; [10],4.4843 and 2.691 and 14.7982
same,"inhibition of osteoclastogenesis, dose-response (fig. S2a)",[2]; [11],42.1525 and 52.4664 and 21.0762
same,"inhibition of osteoclastogenesis, dose-response (fig. S2a)",[2]; [12],52.4664 and 43.4978
same,"inhibition of osteoclastogenesis, dose-response (fig. S2a)",[2]; [13],63.2287 and 72.1973
same,"inhibition of osteoclastogenesis, dose-response (fig. S2a)",[2]; [14],71.7489 and 80.2691
same,"inhibition of osteoclastogenesis, dose-response (fig. S2a)",[2]; [15],79.8206 and 91.0314
same,CTX-I,OVX rats,21.3236 and 22.8572 and 16.6793 and 10.172 and 21.7818 and 24.1752 and 24.2142 and 25.7828
same,Glu-OCN,OVX rats,19.4432 and 20.3365 and 14.3331 and 16.8798 and 23.559 and 26.5413 and 32.3597 and 27.0763
same,OCN,OVX rats,79.4709 and 101.933 and 71.1854 and 74.676 and 124.633 and 154.593 and 174.247 and 198.288
same,PINP,OVX rats,3388.13 and 10860 and 11369.2 and 5541.99 and 4144.03 and 7092.56 and 5050.08 and 5955.78
same,RANKL,OVX rats,139.364 and 152.091 and 195.727 and 181.182 and 193.909 and 213.909 and 163 and 128.454
CCOC(=O)c1sc(NC(=O)/C(=N/Nc2ccc(O)cc2C(=O)O)C(C)=O)nc1C [S3-05],Cmax,[1],60 ± 10 ng/mL
same,half-life,[1],10.6 ± 2.31 h
same,AUC,[1],0.38± 0.23 hr*ug/m
same,plasma concentration-time (fig. S2c),[1]; time 0.083 h,0.0241 and 0.0344 and 0.0141
same,plasma concentration-time (fig. S2c),[1]; time 0.167 h,0.091 and 0.0772 and 0.0497
same,plasma concentration-time (fig. S2c),[1]; time 0.333 h,0.07 and 0.0598 and 0.0834
same,plasma concentration-time (fig. S2c),[1]; time 0.5 h,0.063 and 0.055 and 0.0901
same,plasma concentration-time (fig. S2c),[1]; time 0.667 h,0.057 and 0.0597 and 0.0836
same,plasma concentration-time (fig. S2c),[1]; time 1 h,0.0458 and 0.0351 and 0.0779
same,plasma concentration-time (fig. S2c),[1]; time 2 h,0.0356 and 0.0153 and 0.0386
same,plasma concentration-time (fig. S2c),[1]; time 3 h,0.0376 and 0.0287 and 0.0316
same,plasma concentration-time (fig. S2c),[1]; time 4 h,0.0238 and 0.027 and 0.0298
same,plasma concentration-time (fig. S2c),[1]; time 5.5 h,0.0163 and 0.0195 and 0.0418
same,plasma concentration-time (fig. S2c),[1]; time 7 h,0.0115 and 0.0105 and 0.0613
same,plasma concentration-time (fig. S2c),[1]; time 9 h,0.0058 and 0.0107 and 0.0452
same,plasma concentration-time (fig. S2c),[1]; time 12 h,0.0058 and 0.0222 and 0.0307
same,plasma concentration-time (fig. S2c),[1]; time 16 h,0.0077 and 0 and 0.0286
same,plasma concentration-time (fig. S2c),[1]; time 24 h,0.0024 and 0.0688 and 0.0143
same,plasma concentration-time (fig. S2c),[1]; time 48 h,0.0008 and 0.0021 and 0.0027
same,IC50,"[2]; Mus musculus, Osteoclast",410 nM
same,inhibition at 0.00774313 µM,"[2]; Mus musculus, Osteoclast, conc. 0.00774313 μM, three replicate columns, read-out: inhibition of osteoclastogenesis, dose-response (fig. S2a)",10.9%
same,inhibition at 0.0255523 µM,"[2]; Mus musculus, Osteoclast, conc. 0.0255523 μM, three replicate columns, read-out: inhibition of osteoclastogenesis, dose-response (fig. S2a)",21.5%
same,inhibition at 0.0843226 µM,[2]; [3],24.5%
same,inhibition at 0.278265 µM,[2]; [4],45.8%
same,inhibition at 0.918274 µM,[2]; [5],58.5%
same,inhibition at 3.0303 µM,[2]; [6],78.9%
same,inhibition at 10 µM,[2]; [7],86.2%
same,inhibition at 33 µM,[2]; [8],98.5%
same,"inhibition of osteoclastogenesis, dose-response (fig. S2a)",[2]; [9],5.216 and -0.5015 and 0.1003
same,"inhibition of osteoclastogenesis, dose-response (fig. S2a)",[2]; [10],7.021 and 8.826
same,"inhibition of osteoclastogenesis, dose-response (fig. S2a)",[2]; [11],18.7563 and 13.6409
same,"inhibition of osteoclastogenesis, dose-response (fig. S2a)",[2]; [12],23.8716
same,"inhibition of osteoclastogenesis, dose-response (fig. S2a)",[2]; [13],51.2538 and 38.6159
same,"inhibition of osteoclastogenesis, dose-response (fig. S2a)",[2]; [14],65.3962 and 65.0953
same,"inhibition of osteoclastogenesis, dose-response (fig. S2a)",[2]; [15],74.4233 and 77.4323
same,"inhibition of osteoclastogenesis, dose-response (fig. S2a)","[2]; conc. 10 μM, three replicate columns",87.0612 and 88.2648
same,"inhibition of osteoclastogenesis, dose-response (fig. S2a)","[2]; conc. 33 μM, three replicate columns",99.3982 and 99.6991
same,CTX-I,OVX rats,12.9391 and 9.961 and 23.5145 and 16.5322 and 12.0463 and 14.1264 and 13.0825 and 21.4762
same,Glu-OCN,OVX rats,23.1879 and 10.5179 and 18.8663 and 21.4957 and 14.7477 and 20.9157 and 18.2902 and 26.5413
same,OCN,OVX rats,109.522 and 50.9168 and 121.686 and 154.593 and 50.4316 and 135.849 and 58.7802 and 162.173
same,PINP,OVX rats,4703.95 and 10142.4 and 4202.52 and 5828.23 and 7980.56 and 6497.2 and 3099 and 3185.01
same,RANKL,OVX rats,183 and 172.091 and 217.546 and 201.182 and 228.454 and 173.909 and 175.727 and 170.273
